Test results as given in the NIST ThermoML archive (doi:10.1021/je700521t).

Experiment: refractive index (Na D-line) (dimensionless); xn = mol fraction of the nth substance listed
Details: 101 kPa, Liquid, Standard Abbe refractometry

CCCCn1cc[n+](C)c1.[O-][Cl+3]([O-])([O-])[O-] [1-butyl-3-methylimidazolium perchlorate] + CCO
refractive index
Details	x2 = 0.1	x2 = 0.165	x2 = 0.291	x2 = 0.401	x2 = 0.479
283.15 K	1.475	1.4725	1.468	1.4625	1.459
288.15 K	1.4738	1.4715	1.4667	1.4612	1.4575
293.15 K	1.4725	1.47	1.4655	1.4595	1.4563
298.15 K	1.471	1.4687	1.464	1.458	1.455
303.15 K	1.4697	1.4673	1.4627	1.4568	1.4535
308.15 K	1.4685	1.466	1.4615	1.4555	–
313.15 K	1.467	1.4648	1.46	1.454	–
318.15 K	1.4655	1.4637	1.4587	–	–
323.15 K	1.4645	1.462	1.457	–	–
328.15 K	1.463	1.4608	1.456	–	–
333.15 K	1.4615	1.4595	1.4545	–	–
338.15 K	1.4603	1.458	1.4532	–	–
343.15 K	1.459	1.4565	1.4518	–	–

CCCCCCCC[n+]1ccn(C)c1.F[B-](F)(F)F [1-methyl-3-octylimidazolium tetrafluoroborate] + CCO
refractive index
Details	x2 = 0.081	x2 = 0.161	x2 = 0.315	x2 = 0.511	x2 = 0.612	x2 = 0.753
283.15 K	1.4335	1.4315	1.43	1.4265	1.4225	1.4132
288.15 K	1.4323	1.4305	1.4288	1.425	1.4212	1.4125
293.15 K	1.431	1.4292	1.4273	1.4237	1.42	1.411
298.15 K	1.4295	1.428	1.426	1.423	1.4185	1.4098
303.15 K	1.4284	1.427	1.4245	1.4208	1.4172	1.4085
308.15 K	1.4268	1.4255	1.423	1.4195	1.416	1.4072
313.15 K	1.4255	1.424	1.4219	1.418	1.4143	1.407
318.15 K	1.424	1.4225	1.4205	1.4168	1.413	1.4065
323.15 K	1.4225	1.421	1.419	1.415	1.4115	1.4055
328.15 K	1.4213	1.42	1.4178	1.4137	1.41	1.4045
333.15 K	1.4205	1.4188	1.416	1.4125	1.4085	1.404
338.15 K	1.419	1.4173	1.4145	1.4118	1.4078	1.4033
343.15 K	1.4175	1.416	1.4132	1.411	1.4065	1.402
